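Test compounds were applied to cells in 96-well plates for 48 hours at 5 doses. GI50: concentration for 50% inhibition of growth.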 The source made the active and inactive calls. No stated cut-off is given here; in the data, active = GI50 up to about 1.1 µM and inactive = higher.
Experiments:
Assay in all cases: NCI anticancer screen, dose series, 48 h
A549 = test system: A549
CCRF-CEM = test system: CCRF-CEM
COLO 205 = test system: COLO 205
EKVX = test system: EKVX
HCC 2998 = test system: HCC 2998
HCT-15 = test system: HCT-15
HT-29 = test system: HT-29
KM12 = test system: KM12
LOX IMVI = test system: LOX IMVI
NCI-H460 = test system: NCI-H460
SF-295 = test system: SF-295
SK-OV-3 = test system: SK-OV-3
SN12C = test system: SN12C
SNB-75 = test system: SNB-75
UACC-257 = test system: UACC-257
UO-31 = test system: UO-31
HOP-92 = test system: HOP-92
SK-MEL-5 = test system: SK-MEL-5
TK-10 = test system: TK-10
RXF 393 = test system: RXF 393

SMILES	GI50 (A549)	GI50 (CCRF-CEM)	GI50 (COLO 205)	GI50 (EKVX)	GI50 (HCC 2998)	GI50 (HCT-15) [µM]	GI50 (HT-29)	GI50 (KM12)	GI50 (LOX IMVI)	GI50 (NCI-H460)	GI50 (SF-295)	GI50 (SK-OV-3)	GI50 (SN12C)	GI50 (SNB-75)	GI50 (UACC-257)	GI50 (UO-31)	GI50 (HOP-92)	GI50 (SK-MEL-5)	GI50 (TK-10)	GI50 (RXF 393)
CNC(=O)N(C)COC	> 100 µM (inactive)	> 100 µM (inactive)	> 100 µM (inactive)	> 100 µM (inactive)	> 100 µM (inactive)	> 100	> 100 µM (inactive)	> 100 µM (inactive)	> 100 µM (inactive)	> 100 µM (inactive)	> 100 µM (inactive)	> 100 µM (inactive)	> 100 µM (inactive)	> 100 µM (inactive)	> 100 µM (inactive)	> 100 µM (inactive)				
CC(=O)O[C@@H]1CN(S(=O)(=O)c2ccc(C)cc2)C[C@@H]1C1CCCCC1		37.8 µM (inactive)	18.5 µM (inactive)	19.9 µM (inactive)	42.5 µM (inactive)	32.6	22.9 µM (inactive)	16.1 µM (inactive)	24.6 µM (inactive)	34.5 µM (inactive)	37.9 µM (inactive)	62.2 µM (inactive)		19.8 µM (inactive)	15.4 µM (inactive)	31 µM (inactive)	14.7 µM (inactive)	19.2 µM (inactive)	14.2 µM (inactive)	
O=C1C(Cl)N(c2ccccc2Cl)C1c1c[nH]c2ccccc12 (configuration not stated)	> 100 µM (inactive)	> 100 µM (inactive)	> 100 µM (inactive)	> 100 µM (inactive)			> 100 µM (inactive)	> 100 µM (inactive)		> 100 µM (inactive)	> 100 µM (inactive)	> 100 µM (inactive)	> 100 µM (inactive)	86.9 µM (inactive)	> 100 µM (inactive)	> 100 µM (inactive)	> 100 µM (inactive)	> 100 µM (inactive)	> 100 µM (inactive)	> 100 µM (inactive)
CC(C)(C)OC(=O)NC1CCC(C(C)(C)C)CC1 (configuration not stated)	43.8 µM (inactive)	36.1 µM (inactive)	> 65.5 µM (inactive)	> 64.1 µM (inactive)	> 87.1 µM (inactive)	> 79.6	22.3 µM (inactive)	> 81.7 µM (inactive)	40.9 µM (inactive)	> 77.3 µM (inactive)	26.5 µM (inactive)	> 100 µM (inactive)	> 77.8 µM (inactive)	40.7 µM (inactive)	19.5 µM (inactive)	59.2 µM (inactive)		27.7 µM (inactive)		31.3 µM (inactive)
Cc1cn(Cc2cn(CC3OC(n4cc(C)c(=O)[nH]c4=O)CC3O)nn2)c(=O)[nH]c1=O (configuration not stated)	> 100 µM (inactive)	> 100 µM (inactive)	> 100 µM (inactive)	> 100 µM (inactive)	> 100 µM (inactive)	> 100		> 100 µM (inactive)			> 100 µM (inactive)	> 100 µM (inactive)	> 100 µM (inactive)	> 100 µM (inactive)	> 100 µM (inactive)	> 100 µM (inactive)		> 100 µM (inactive)	> 100 µM (inactive)	> 100 µM (inactive)
Cn1c(=O)c2nc(N3CCCCC3)cnc2n(C)c1=O	> 100 µM (inactive)	> 100 µM (inactive)	> 100 µM (inactive)	> 100 µM (inactive)	> 100 µM (inactive)	> 100	> 100 µM (inactive)	> 100 µM (inactive)		> 100 µM (inactive)	> 100 µM (inactive)	> 100 µM (inactive)	> 100 µM (inactive)	> 100 µM (inactive)	> 100 µM (inactive)	> 100 µM (inactive)	> 100 µM (inactive)	> 100 µM (inactive)	> 100 µM (inactive)	

Source: ChEMBL document CHEMBL1201862, “PubChem BioAssay data set” (2004)
